According to patent US20210106581A1, “Treatment Of Liver Diseases” (Melior Pharmaceuticals I, Inc., priority 2018, published 2021):
Entries after “also recorded” stand apart in the source; their conditions may differ.

Columns and labels:
Format in all cases: in vivo
[1] = system: male BALB/c mice with CCl4-induced liver fibrosis; assay: CCl4-induced liver fibrosis mouse model (Example 3)
Procedure: In the following study, 6 to 7 week old male BALB/c mice (25-30 g) were randomized based on body weight after 7-day of CCl4 injections (3 times). Mice were fed standard rodent chow and water ad libitum. The mice were divided into 4 groups, with 12 mice per group. The mice were administered a dose volume of 10 mL/kg (MLR-1023), 2.5 mL/kg (CCl4), each in a formulation of 20% HBPCD/saline and corn oil intraperitoneally (i.p.). The dose level of MLR-1023 was 30 and 100 mg per kg, and the dose level of CCl4 was 5%. The dose frequency of MLR-1023 was once daily (QD), and the dose frequency of CCl4 was 3 times a week (Monday, Wednesday, and Friday). The study duration was 28 days, with MLR-1023 treatment started from day 8 to day 28. CCl4 was obtained from Sigma-Aldrich (St. Louis, Mo.). A commercial kit was used for analyzing liver hydroxyproline content (BioVision, Inc.; Milpitas, Calif.). ALT and AST kits were purchased from BIOO Science (Austin, Tex.). All other reagents used in the study were of analytical grade. Male BALB/c mice were obtained from Charles River Laboratories (Wilmington, Mass.). On the last day of the study all mice were sacrificed by cervical dislocation. Blood/serum samples were collected for the assays of liver enzymes (ALT and AST). Livers were rapidly dissected and part of each liver was cut and fixed in formaldehyde saline (4%) solution for histological analysis; the remainder of the liver was snap frozen in liquid nitrogen, and stored at −70° C. until use. Starting on Day 1, animals were administered i.p. with 5% CCl4 or corn oil (vehicle for CCl4 solution) three days per week (Monday, Wednesday, and Friday) for 4 weeks. CCl4 was formulated as a […] with the dose volume of 2.5 mL/kg, and was freshly formulated on a weekly basis. Animals were weighed weekly. Test compounds and vehicle administrations were performed from Day 8 to Day 28. At the end of study, blood was drawn through retro-orbital punctures for serum collection. The whole liver was removed. One lobe was placed in a tube containing 10% formalin for histopathology, the remainder of the liver lobes were collected and snap frozen for further hydroxyproline assay. Homogenized liver samples were evaluated for hydroxyproline content to assess hepatic collagen levels. Serum was separated by centrifugation at 4° C. and analyzed immediately or stored at −70° C. Serum ALT and AST levels were determined by colorimetric method and using procedures described by the kit manufacturers. Hepatic hydroxyproline content was measured by colorimetric method and expressed as μg/mg wet liver weight. Livers were removed at necropsy and fixed in 10% buffered formalin. Sections of liver were processed routinely, sectioned at approximately 4 microns, and stained with hematoxylin and eosin (H&E) or picrosirius red (PSR). Glass slides were evaluated using light microscopy by a board-certified veterinary/toxicology pathologist in a blind manner. Two sections from each animal were examined. Five animals from each group were randomly chosen for histology analysis. The severity of histologic findings was scored using the Society of Toxicologic Pathology best practices (1=minimal, 2=mild, 3=moderate, 4=marked, 5=Severe). Fibrosis value is corresponding to the fraction of centrilobular areas affected by fibrosis (1=about <10%, 2=about 11-30%, 3=about […], 4=about […], 5=about 71-100%). Liver fibrosis is characterized by increased numbers of fibroblasts and collagen fibers in liver sinusoids that partially, or completely, bridged centrilobular areas. PSR staining severity generally correlated with the mean severity of fibrosis. Overall increased collagen deposition and bridging fibrosis are identified with PSR stain. […]

[2] = system: male C57BL/6 mice on modified high fat diet (mHFD); assay: Modified high fat diet (mHFD) mouse model, serum and liver triglycerides (Example 1); settings: 30 mg/kg or 100 mg/kg i.p. once daily, 8 weeks
Procedure: The animal model was performed essentially as described in Cong et al., Life Sciences, 2008, 82, 983-990. Briefly, male C57BL/6 mice at 6 weeks of age were fed, ad libitum, a modified high fat diet (mHFD) provided by Research Diets, and described in Cong et al. One group of control animals (n=11) remained on standard diet. All animals remained on their respective diets for 23 weeks (29 weeks of age). At that time, animals continued to remain on their respective diets and treatment regimens began. The group of animals on standard diet and one group of animals on mHFD (n=9) received vehicle administered by intraperitoneal injection, once daily. Two additional groups of animals on mHFD (n=8) received Compound 102 administration by intraperitoneal injection, once daily at either 30 mg/kg or 100 mg/kg. Compound 102 was formulated in, and the vehicle used was, 20% hydroxypropyl beta cyclodextrin (HPBCD). Treatment regimen continued for an additional 8 weeks while the animals remained on their respective diets. At the end of 8 weeks of treatment, animals were fasted for 6 hours. […] Serum triglycerides and liver triglyceride were measured from the respective samples using Triglyceride assay kit (Wako Diagnostics, Richmond, Va.; Cat No 461-8992). Data were averaged and are expressed as the average SEM. Data were analyzed by two-way repeated measures ANOVA followed by a Dunnett's post hoc test. […]

[3] = system: male C57BL/6NCrl mice on modified high fat diet (mHFD); assay: Extended mHFD NASH mouse study, 8-week treatment (Example 2)
Text: The modified high fat diet (mHFD) was obtained from Research Diets, Inc. (New Brunswick, N.J.) and was formulated according to Cong et al., supra. The mHFD contained 60% fat, 14% protein, and 26% carbohydrate, with total energy content of 21.0 kJ/g. The mHFD contained a low concentration of choline bicitrate a (0.6 g/kg) and DL-methionine (1.5 g/kg). Fatty acid composition of the fats (mainly from lard) in mHFD was 36% saturated fatty acids, 45% monounsaturated fatty acids, and 19% polyunsaturated fatty acids (PUFA).
Male C57BL/6NCrl mice were obtained from Charles River Laboratories (Wilmington, Mass.). Mice were maintained in microisolator cages, in groups of no more than 4 animals per cage, and on a 12-hour light cycle. Food and water were provided ad libitum. On the last day of the study, all mice were sacrificed by cervical dislocation after a 4-hour food deprivation. Livers were rapidly dissected and part of each liver was cut and fixed in formaldehyde saline (4%) solution for histological analysis. The rest of the liver was snap frozen in liquid nitrogen, and stored at −70° C. until use.
Mice were acquired at 3-4 weeks of age (body weight of about 11-12 g). Mice were fed a standard chow (Control group) or mHFD (Model group) for 22 weeks. […] At week-22, based on body weight consideration, the mHFD-fed mice were screened and distributed in a balanced fashion into 3 groups for the compound treatment study (Table 1).
During the 8-week drug treatment phase, all animals (except for standard-chow controls) remain on the mHFD diet. During the treatment period, the summary of measurement schedule is as below: • 1) Body weight (BW) was taken once a week. • 2) Terminal blood and whole Liver were collected. • 3) Hepatic histology (NAS score) was assessed.
Livers were removed at necropsy and fixed in 10% buffered formalin. Sections were processed to paraffin by routine histological methods and 4 μm sections were stained with hematoxylin and eosin. Sections were evaluated under light microscopy by a board-certified veterinary pathologist for identification of proliferative lesions as well as severity scoring of lesions associated with steatohepatitis. The pathologist was blinded to the treatment status. Steatohepatitis parameters were scored and classified according to a standardized histological scoring system for NASH described by Kleiner et al., Hepatology, 2005, 41, 1313-1321. In brief, individual livers were evaluated for steatosis, lobular inflammation, and ballooning degeneration of hepatocytes, and given a score of (03) for steatosis and inflammation, and (02) for ballooning degeneration, using previously defined criteria (see below). An NAFLD activity score (NAS) was obtained by summing the individual parameter scores.
Steatosis Location: 0: Predominantly zone 3 (centrilobular); 1: Predominantly zone 1 (periportal); 2: Azonal (defined as when the pattern could not be fit into one of the other categories or marked architectural change); and 3: Panacinar (defined as involving all zones of the liver equally).
Inflammation: 0: No foci; 1: <2 foci per 200× field; 2: 2-4 foci/200× field; and 3: >4 foci/200× field.
Ballooning Degeneration: 0: None; 1: Few balloon cells; and 2: Many cells/prominent ballooning.
Data are expressed as the average±SEM at each week and analyzed by Unpaired T-tests as applicable using Prism® software (GraphPad Software, Inc., Las Jolla, Calif.). A p-value of less than 0.05 indicates a significant difference between treatment groups.

[4] = both treatments (30 and 100 mpk), H&E, FIG. 11

Cc1cccc(Oc2cnc(=O)[nH]c2)c1 [MLR-1023, tolimidone]
CCl4-induced collagen deposition ([1]; 100 mg per kg, 21-day treatment): significantly reduced | fibrosis percentage ([1]; 100 mg per kg, 21-day treatment, PSR): reduced | scores of hepatic inflammation ([1]; 100 mg per kg, H&E, vs CCl4-vehicle, FIG. 12): reduced | CCl4-induced increase of liver enzymes, especially AST ([1]; 21-day treatment, summary statement): mild improvement; also recorded: mild effects | serum AST levels ([1]; 30 and 100 mg per kg i.p. QD day 8-28, vs CCl4-vehicle, dose-dependent manner, FIG. 9): trended towards improving | hepatic hydroxyproline levels ([1]; 30 and 100 mg per kg i.p. QD day 8-28, vs CCl4-vehicle, dose-dependent manner, FIG. 10): significantly reduced | serum ALT levels ([1]; 30 and 100 mg per kg i.p. QD day 8-28, vs CCl4-vehicle, FIG. 9): did not significantly affect | scores of hepatic necrosis/mineralization ([1]; 30 and 100 mg per kg, H&E, vs CCl4-vehicle, FIG. 12): trended towards reducing; also recorded: reduced | inflammation (pathologist's general assessment) [1, 4]: still present | necrosis (pathologist's general assessment) [1, 4]: dose-related effect | fibrosis (pathologist's general assessment) ([1]; both treatments (30 and 100 mpk), PSR, FIG. 11): dose-related effect | circulating serum triglyceride levels ([2]; 6 h fasted, FIG. 1): significantly reduced | accumulation of triglycerides in the liver ([2]; FIG. 2): significantly reduced | NAFLD activity score (NAS) ([3]; 30 mpk (30 mg/kg) IP, vs MD-vehicle, FIG. 6): significantly reduced | body weight ([3]; 30 mpk IP, 8-week treatment, vs MD-vehicle, FIG. 3): significantly reduced | liver weight ([3]; 30 mpk IP, 8-week treatment, vs MD-vehicle, FIG. 4): significantly reduced | TG content in liver ([3]; 30 mpk IP, vs MD-vehicle, FIG. 2): significantly reduced | body weight ([3]; 100 mpk IP, 8-week treatment, vs MD-vehicle, FIG. 3): trend in reduction (p=0.056) | liver weight ([3]; 100 mpk IP, 8-week treatment, vs MD-vehicle, FIG. 4): significantly reduced | hepatocellular ballooning ([3]; 100 mpk, FIG. 7): significantly reduced | body weight ([3]; FIG. 3 legend, dose not stated): significantly reduced | liver weight ([3]; FIG. 4 legend, dose not stated): significantly reduced | hepatocellular ballooning (histology) ([3]; dose not stated, FIGS. 7, 8A, 8B): reduced amount | steatosis (histology) ([3]; dose not stated, FIGS. 8A, 8B): reduced
